Measured values taken from patent US9539316B2, “Blood stage malaria vaccine” (priority 2011, dated 2017).

What was measured:
P. chabaudi [1] = assay type: in vivo, A/J mice; details: for protection against homologous challenge: 3 doses of 10^6 pRBC (ring stages) i.v. 2 weeks apart, compound 2 μM, 40 minutes, 37° C., challenge 10^5 P. chabaudi (FIG. 7A)
P. vinckei = assay type: in vivo, A/J mice; details: for protection against heterologous challenge: 3 doses of 10^6 P. chabaudi pRBC (ring stages) i.v. 2 weeks apart, compound 2 μM, 40 minutes, 37° C., challenge 10^4 P. vinckei (FIG. 7B)
P. chabaudi [2] = details: 500 μL blood of mice immunized with 10^7 centanamycin (2 μM or 200 nM) attenuated pRBC taken at day 42 post-innoculation, transferred to naïve reporter mice

SMILES | protection against homologous challenge (P. chabaudi [1]) | peak parasite density (P. vinckei; 1 mouse of the group, P. vinckei challenge) | protection against heterologous challenge (P. vinckei) | recovery by day 12 (P. vinckei; P. vinckei challenge, all animals) | parasitaemia by day 11 post-challenge (P. chabaudi [1]; 3 doses of 10^4, 10^5 or 10^6 pRBC, each group, centanamycin 2 μM (FIG. 4)) | parasitaemia compared between dose groups, e.g. at day 9 post-challenge (P. chabaudi [1]; 3 doses of 10^6 pRBC versus 10^4 and 10^5, centanamycin 2 μM (FIG. 4)) | vaccination efficacy, 200 nM attenuation (P. chabaudi [1]; 3 doses or a single dose of 10^4 P. chabaudi pRBC treated with 200 nM centanamycin (FIG. 3)) | vaccine efficacy, 3 doses (P. chabaudi [1]; centanamycin attenuated P. chabaudi pRBC, 3 doses of vaccine) | clinical score data (P. chabaudi [1]; immunization with 10^6 centanamycin-treated parasites and challenge (FIG. 6)) | immunity to virulent challenge (parasitemia) (P. chabaudi [1]; pRBC treated in vitro with 2 μM centanamycin, 5 doses i.v. 1 week apart, 10^4 parasites each, challenge 10^5 homologous WT pRBC) | protection, single dose (P. chabaudi [1]; single dose of 10^4 pRBC, centanamycin 2 μM, challenge 10^5 pRBC 35 days after vaccination (FIG. 2)) | parasitaemia at day 8 and 9 post-challenge versus 2 μM attenuated parasites (P. chabaudi [1]; single dose of 10^7 pRBC attenuated using 200 nM centanamycin (FIG. 5)) | recovery by day 13 post-innoculation (P. chabaudi [1]; single dose of 10^7 pRBC attenuated using 200 nM centanamycin, compared with 2 μM (FIG. 5)) | parasites detected by microscopy (P. chabaudi [2])
COc1cc2cc(C(=O)N3CC(CCl)c4c3cc(O)c3ccoc43)[nH]c2c(OC)c1OC (stereo not shown) [tafuramycin A, seco-iso-cyclopropylfurano[2,3-e]indoline-TMI] | near complete protection | approximately 20% | very significant protection | all the animals had fully recovered |  |  |  |  |  |  |  |  |  | 
COc1cc2cc(C(=O)Nc3cc(O)c4ncc(C)cc4c3CCCl)[nH]c2c(OC)c1OC [AS-VIII-104] |  |  | performed similarly to centanamycin |  |  |  |  |  |  |  |  |  |  | 
COc1cc2cc(C(=O)Nc3cc(N)c4ccccc4c3CCCl)[nH]c2c(OC)c1OC [centanamycin] | lower |  |  |  | little or no parasitaemia | lowest | effectively vaccinated | work effectively | protected not only from death and high parasitemia but also from symptoms | induces immunity to virulent challenge | induces protection in most animals | more significant parasitaemia | recovered to the same extent | no parasites detected
